Laboratory results as given in patent publication US11040108B2, “Amino acid- and peptide-steroid conjugates and use thereof” (BRANDEIS UNIVERSITY, priority 2016, dated 2021).
Where two headings read alike, the source gives them in different places.

System: Saos-2 osteosarcoma cells
Assay: MTT assay, cell viability of Saos-2
Format: cell-based
Conditions: Homo sapiens, read-out: IC50 against Saos-2
Method: HeLa, Saos-2, HS-5, HepG2, T98G, and A2780 cells were purchased from American-type Culture Collection (ATCC, USA). A2780cis cell was purchased from Sigma. HeLa cells, HepG-2 cells, and T98G cells were cultured in MEM Medium supplemented with 10% v/v fetal bovine serum, 100 U/mL penicillin, and 100 μg/mL streptomycin. Saos-2 cells were cultured in McCoy's 5a Medium (for Saos-2) supplemented with 15% v/v fetal bovine serum, 100 U/mL penicillin, and 100 μg/mL streptomycin. HS-5 cells were cultured in Dulbecco's Modified Eagle's medium (DMEM) supplemented with 10% v fetal bovine serum (FBS), 100 U/mL penicillin, and 100 μg/mL streptomycin. A2780cis cells were cultured in RPMI 1640 Medium supplemented with 10% v/v fetal bovine serum, 100 U/mL penicillin, and 100 μg/mL streptomycin (cisplatin only necessary every 2-3 passages). All cells were maintained at 37° C. in a humidified atmosphere of 5% CO2.
An MTT assay was used to test the cytotoxicity. All different cell lines were seeded in 96-well plates at 1×10^5 cells/well for 24 hours followed by removal of the culture medium and subsequent addition of culture medium containing different concentrations of the precursors. […] The absorbance of each well at 595 nm was measured by a multimode microplate reader. […]

## CC(C)CCC[C@@H](C)C1CC[C@H]2[C@@H]3CC=C4CC(OC(=O)NC(Cc5ccc(OP(=O)(O)O)cc5)C(=O)O)CC[C@]4(C)[C@H]3CC[C@]12C (stereo partly drawn) [1a, Cholesterol-(phospho)D-Tyr]
48 hours
  IC50: 41 µM
72 hours
  IC50: 26 µM
